The values below come from EP2308883A1, “New derivatives of thieno[2,3-b]pyridine and 5,6,7,8 tetrahydrothieno[2,3 b]quinoline in particular useful in the treatment of malaria” (priority 2009, dated 2011).

Read-outs that look alike come from different tables or passages of the source. Where only a bound is given, the exact number is not on record here.

Type in all cases: biochemical
The target of assay [1] is T1, GSK-3 (Cryptosporidium parvum, UniProt A3FQN0).
T1 sequence (A3FQN0 1-433): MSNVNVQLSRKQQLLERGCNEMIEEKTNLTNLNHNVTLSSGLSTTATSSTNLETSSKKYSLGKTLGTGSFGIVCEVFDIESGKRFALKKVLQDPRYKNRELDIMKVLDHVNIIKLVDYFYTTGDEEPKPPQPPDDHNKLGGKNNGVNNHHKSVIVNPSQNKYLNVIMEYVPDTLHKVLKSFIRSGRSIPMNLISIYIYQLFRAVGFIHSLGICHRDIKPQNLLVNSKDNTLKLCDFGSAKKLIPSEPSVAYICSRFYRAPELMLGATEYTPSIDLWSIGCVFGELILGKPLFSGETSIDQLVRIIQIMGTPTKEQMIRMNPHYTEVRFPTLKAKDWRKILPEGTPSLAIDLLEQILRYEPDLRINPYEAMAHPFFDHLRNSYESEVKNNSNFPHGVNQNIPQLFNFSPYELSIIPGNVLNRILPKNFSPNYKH
As to the kind of experiment: Species specificity: recombinant tagged GSK-3 orthologue kinase assay.
Procedure: (§1) Following PCR amplification from cDNA libraries or direct synthesis based on databases sequences, the GSK-3 genes were inserted in appropriate expression vectors and recombinant, tagged kinases were expressed, affinity purified and assayed in the presence of up to 10-100µM of each compound of formula (I) according to the present invention and a selection of the PfGSK-3 inhibitors.

Assay [2] has as its target T2, GSK-3 (Leishmania donovani, UniProt A6N857).
T2 sequence (A6N857 1-355): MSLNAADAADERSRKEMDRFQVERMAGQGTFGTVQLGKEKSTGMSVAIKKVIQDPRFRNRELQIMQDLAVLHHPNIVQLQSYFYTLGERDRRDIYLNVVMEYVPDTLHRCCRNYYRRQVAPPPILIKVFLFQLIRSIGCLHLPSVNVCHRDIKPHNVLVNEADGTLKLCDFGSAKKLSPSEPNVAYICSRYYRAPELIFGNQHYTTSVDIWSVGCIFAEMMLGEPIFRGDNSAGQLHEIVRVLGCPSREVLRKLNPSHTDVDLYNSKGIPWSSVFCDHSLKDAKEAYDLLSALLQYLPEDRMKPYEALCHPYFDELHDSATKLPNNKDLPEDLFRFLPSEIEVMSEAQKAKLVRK
Described as above.
Procedure: as §1

In assay [3] the target is T3, GSK-3 (Plasmodium knowlesi, UniProt A0A679KU36).
T3 sequence (A0A679KU36 1-473): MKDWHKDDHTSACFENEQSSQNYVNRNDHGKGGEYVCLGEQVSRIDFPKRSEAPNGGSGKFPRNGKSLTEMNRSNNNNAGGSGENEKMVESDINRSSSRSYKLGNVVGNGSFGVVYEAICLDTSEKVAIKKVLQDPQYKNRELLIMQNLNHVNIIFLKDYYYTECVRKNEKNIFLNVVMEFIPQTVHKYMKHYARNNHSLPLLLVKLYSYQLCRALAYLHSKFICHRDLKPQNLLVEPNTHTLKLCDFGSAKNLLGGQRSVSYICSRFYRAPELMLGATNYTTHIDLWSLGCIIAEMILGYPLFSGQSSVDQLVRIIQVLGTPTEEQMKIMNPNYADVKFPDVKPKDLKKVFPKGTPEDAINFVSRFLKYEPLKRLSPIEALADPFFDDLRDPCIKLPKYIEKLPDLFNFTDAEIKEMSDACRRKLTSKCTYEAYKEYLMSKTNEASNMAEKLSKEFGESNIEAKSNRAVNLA
Described as above.
Procedure: as §1

In assay [4] the target is T4, GSK-3 (Trypanosoma cruzi, UniProt Q4E1X0).
T4 sequence (Q4E1X0 1-353): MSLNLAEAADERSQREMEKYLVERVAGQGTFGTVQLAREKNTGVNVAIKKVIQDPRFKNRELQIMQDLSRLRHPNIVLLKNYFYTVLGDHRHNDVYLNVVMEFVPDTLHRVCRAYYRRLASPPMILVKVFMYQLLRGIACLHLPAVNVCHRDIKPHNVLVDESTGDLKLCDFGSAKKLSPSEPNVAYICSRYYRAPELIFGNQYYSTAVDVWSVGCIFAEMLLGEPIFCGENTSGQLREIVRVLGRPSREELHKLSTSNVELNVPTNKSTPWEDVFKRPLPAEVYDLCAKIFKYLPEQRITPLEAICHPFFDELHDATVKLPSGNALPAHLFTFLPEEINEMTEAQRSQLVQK
Described as above.
Procedure: as §1

The target of assay [5] is Mammalian GSK-3 (GSK-3α/β). As to the kind of experiment: Kinase assay with native porcine GSK3 purified from porcine brain, GS-1 peptide and [γ-33P] ATP. Conditions: for anti-mammalian GSK-3 IC50 values: result in words. How it is done: Porcine GSK3 (GSK-3α/β) was purified from porcine brain by affinity chromatography on immobilized axin according to the protocol described in Primot et al (Protein Expression and Purification 20, 394-404, 2000).
Both porcine GSK3 and PfGSK3 were assayed with 40 µM GS-1 peptide, a specific GSK-3 substrate, ([…]pEDEEE, synthesized by the Peptide Synthesis Unit, Institute of Biomolecular Sciences, University of Southampton, U.K.), in buffer A (25 mM Tris-HCl pH 7.5, 10 mM MgC12, 1 mM EGTA, 1 mM DTT, 50 µg heparin/ml, 0.5 mg BSA/ml) in the presence of 15 µM [γ-^33P] ATP (3000 Ci/mmol; 1 mCi/ml) in a final volume of 30 µl. After 30 min. incubation at 30°C, 25 µl aliquots of supernatant were spotted onto 2.5 x 3 cm pieces of Whatman P81 phosphocellulose paper, and, 20 sec. later, the filters were washed five times (for at least 5 min. each time) in 1 % phosphoric acid. The wet filters were counted in the presence of 1 ml ACS (Amersham) scintillation fluid. The kinase activity was expressed in pmoles phosphate incorporated in GS-1 or in percentage of the maximal activity.

Setting [6] is: read-out: IC50 Leishmania donovani; calculated from dose-response curves.
[7] abbreviates: read-out: IC50 Plasmodium knowlesi; calculated from dose-response curves.
The mark [8] stands for this setting: read-out: IC50 Trypanopsoma cruzi; calculated from dose-response curves; -(100) taken as no inhibition at 100.
The mark [9] stands for this setting: calculated from dose-response curves, -(100) taken as no inhibition at 100, read-out: IC50 Cryptosporidium parvum.
Where [10] appears, read: calculated from dose-response curves; read-out: IC50 Leishmania donovani.
Where [11] appears, read: calculated from dose-response curves; read-out: IC50 Plasmodium knowlesi.
The mark [12] stands for this setting: calculated from dose-response curves; -(100) taken as no inhibition at 100; read-out: IC50 Trypanopsoma cruzi.
Where [13] appears, read: -(10) taken as no inhibition at 10, read-out: IC50 Mammalian GSK-3.

Regarding `COc1ccccc1-c1c(C#N)c(N)nc2sc(C(=O)c3ccccc3)c(N)c12` [Compound 2, 3,6-diamino-2-benzoyl-4-(2-methoxyphenyl)thieno[2,3-b]pyridine-5-carbonitrile], the IC50 at GSK-3 [1] is greater than 100 µM; on GSK-3 [2] (setting [6]) it was 80 µM; on GSK-3 [3] (setting [7]) it was 95 µM; on GSK-3 [4] (setting [8]), greater than 100 µM. Besides, the “anti-mammalian GSK-3 IC50 values” in assay [5] is recorded as “do not demonstrate good”.

Consider `N#Cc1c(N)nc2sc(C(=O)c3cccc(Cl)c3)c(N)c2c1-c1ccccc1I` [Compound 14, 3,6-diamino-2-(3-chlorobenzoyl)-4-(2-iodophenyl)thieno[2,3-b]pyridine-5-carbonitrile], for which the IC50 on GSK-3 [1] (setting [9]) is greater than 100 µM; on GSK-3 [2] (setting [10]) it was 70 µM; on GSK-3 [3] (setting [11]), 2.75 µM; at GSK-3 [4] (setting [12]), greater than 100 µM. In addition, the “anti-mammalian GSK-3 IC50 values” in assay [5] is given as “do not demonstrate good”.

For `N#Cc1c(N)nc2sc(C(=O)c3cccc(Cl)c3)c(N)c2c1-c1ccccc1Br` [Compound 20, 3,6-diamino-4-(2-bromophenyl)-2-(3-chlorobenzoyl)thieno[2,3-b]pyridine-5-carbonitrile], the IC50 on GSK-3 [1] (setting [9]) was greater than 100 µM; at GSK-3 [2] (setting [10]) it was 44 µM; at GSK-3 [3] (setting [11]), 1.45 µM; on GSK-3 [4] (setting [12]), greater than 100 µM. Besides, the “anti-mammalian GSK-3 IC50 values” in assay [5] is “do not demonstrate good”.

On to `N#Cc1c(N)nc2sc(C(=O)c3cccc(Cl)c3)c(N)c2c1-c1ccccc1Cl` [Compound 22, 3,6-diamino-2-(3-chlorobenzoyl)-4-(2-chlorophenyl)thieno[2,3-b]pyridine-5-carbonitrile], for which the IC50 on GSK-3 [1] was greater than 100 µM; at GSK-3 [2] (setting [6]), 72 µM; on GSK-3 [3] (setting [7]) it was 2.45 µM; at GSK-3 [4] (setting [8]), greater than 100 µM; in assay [5] (setting [13]), greater than 10 µM; in assay [5] (read-out: mammalian GSK-3α/β IC50) it was greater than 10 µM. In addition, in assay [5], the “anti-mammalian GSK-3 IC50 values” was “do not demonstrate good”.

For the compound `N#Cc1cccc(C(=O)c2sc3nc(N)c(C#N)c(-c4ccccc4Cl)c3c2N)c1` [Compound 26, 3,6-diamino-4-(2-chlorophenyl)-2-(3-cyanobenzoyl)thieno[2,3-b]pyridine-5-carbonitrile], the IC50 at GSK-3 [1] (setting [9]) is greater than 100 µM; on GSK-3 [2] (setting [10]) it was 100 µM; at GSK-3 [3] (setting [11]), 6.5 µM; on GSK-3 [4] (setting [12]), greater than 100 µM; in assay [5] (setting [13]), greater than 10 µM. Further, the “anti-mammalian GSK-3 IC50 values” in assay [5] is recorded as “do not demonstrate good”.
